From PubChem BioAssay (NCI) come the findings set out here.

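1) Cells in 96-well plates. 2) Compound, 48 h, 5 concentrations. 3) Linear interpolation between surrounding doses. 4) Unreached endpoint = highest concentration. TGI: concentration producing complete growth inhibition.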

Common to all, as to experiment: growth of human tumour cells (NCI), 48 h
Test [1] concerns KM12 colon.
For test [2], the system named is ACHN renal.
Test [3] concerns U251 CNS.
In test [4] the test system is SF-295 CNS.
For test [5], the system named is T-47D breast.
Test [6] concerns SNB-19 CNS.
The subject of test [7] is SK-MEL-5 melanoma.
Test [8] has as its system EKVX NSCLC.
In test [9] the test system is NCI-H522 lung.
The test system of test [10] is TK-10 renal.
The test system of test [11] is OVCAR-4 ovarian.
Test [12] relates to PC-3 prostate.
Test [13] concerns RXF 393 renal.
Test [14] relates to MCF7 breast.
Test [15] has as its system HOP-62 NSCLC.
In test [16] the test system is HS 578T breast.
For test [17], the system named is OVCAR-8 ovarian.
Test [18] deals with MOLT-4 leukemia.

Consider `CCCC(=O)OCC1(CO)C/C(=C/CC(C(C)C)C(C)C)C(=O)O1` (centres undefined), for which the TGI in test [1], in [2], in test [3], in [4], in test [5] and in test [6] was more than 100 µM in each case. The TGI in [7], in test [8], in test [9], in test [10], in test [11] and in test [12] was more than 100 µM in each case. Besides, the TGI in test [13], in test [14], in test [15], in test [16] and in [17] was more than 100 µM throughout.
Regarding `CC(C)(O)/C=C\P(C)(=O)c1ccccc1` (centres undefined), the TGI in test [1], in [2], in test [3], in [4], in test [5] and in [6] was more than 100 µM throughout. Moreover, the TGI in [7], in [8], in [9], in test [10], in test [11] and in test [12] was more than 100 µM throughout. In addition, the TGI in [13], in test [14], in [15], in test [16] and in [17] was more than 100 µM in each case.
In the case of `CCOc1ncn(-c2ccc(NC(=S)Nc3cnccn3)cc2)n1`, the TGI in test [1], in [2], in [3], in test [4], in test [5] and in test [18] was more than 10 µM in each case. Besides, the TGI in [6], in [8], in test [9], in test [10], in [11] and in test [13] was more than 10 µM throughout. For the same molecule, the TGI in test [14], in test [16] and in [17] was more than 10 µM each time.
`CC(=O)OCC1OC(O[C@@H]2C[C@H]3C(C)(C)[C@H](OC(C)=O)CC[C@]3(C)[C@H]3CC[C@]4(C)C(=CC[C@H]4[C@@H](C)C[C@@H](O)[C@H](O)C(C)(C)O)[C@@]32C)C(O)C(O)C1O` (some centres undefined): the TGI amounted to 30.4 µM in test [2]; 25.3 µM in test [3]; 33 µM in [4]; 32 µM in test [5]; 31.8 µM in [18]; 29.3 µM in test [6]. The TGI in [8] was determined as 40.2 µM; in [9], 5.07 µM; in test [10] it was 32 µM; in [11], 29.8 µM; in test [12] it was 30.8 µM; in test [14], 33.2 µM. Besides, the TGI was determined as 29.3 µM in [15] and 33.4 µM in test [17].
As to `NC(N)=NCc1ccc2c(c1)OCO2`, the TGI in test [1], in [2], in test [3], in test [4], in test [5] and in test [18] was more than 100 µM throughout. Also, the TGI is more than 100 µM in test [6]; 49.7 µM in test [7]; more than 100 µM in test [8]; more than 100 µM in [9]; more than 100 µM in test [10]; more than 100 µM in [11]. The TGI in test [12], in [13], in test [15] and in test [16] was more than 100 µM in each case.
On to `CCOC(=O)CCC(NC(=O)c1ccc(Nc2cnc3cc(C(F)(F)F)ccc3n2)cc1)C(=O)OCC` (centres undefined), for which the TGI in test [1] was more than 100 µM; in test [2] it was more than 100 µM; in [3], 15.3 µM; in [4], 26 µM; in test [5], more than 100 µM; in [18] it was more than 100 µM. For the same molecule, the TGI is more than 47.8 µM in test [6]; more than 100 µM in test [7]; more than 100 µM in test [8]; more than 100 µM in test [9]; more than 100 µM in test [10]; more than 100 µM in test [11]. Further, the TGI is 9.64 µM in test [13]; more than 31.6 µM in [14]; 34.7 µM in test [15]; 47.7 µM in [16]; more than 100 µM in test [17].
Turning to `CC1(C)C(=O)N(O)C(C)(C)N1N=O`, the TGI in test [1], in test [2], in test [3], in test [4], in test [5] and in test [18] was more than 10 µM each time. Also, the TGI in test [6], in test [8], in test [9], in test [10], in test [11] and in [12] was more than 10 µM throughout. Besides, the TGI in [13], in test [14], in test [15] and in test [17] was more than 10 µM throughout.
`Cc1ccc(C(=O)OC(C)C)cc1N=NN(C)C`: the TGI in test [1], in test [2], in test [3], in [4], in [5] and in [18] was more than 100 µM in each case. Further, the TGI in [6], in test [7], in test [8], in [9], in [10] and in test [11] was more than 100 µM in each case. The TGI in test [12], in test [14], in test [15], in test [16] and in [17] was more than 100 µM each time.
